Results taken from patent publication US20260199273A1, “Compounds for the Treatment of Neuromuscular Disorders” (NMD PHARMA A/S, priority 2022, published 2026).

The compounds below were run on isolated rat soleus nerve-muscle preparations (assay: Measurement of force in an in vitro model: recovery of nerve-stimulated contractile force after tubocurarine). Details: 40 min, 10 μM of test compound, after 40 mins of compound exposure, tubocurarine (115 nM) for 90 minutes, read-out: Point increase (%): percentage increase of initial force that was restored.
Protocol: In one aspect, the invention relates to a method for recovery of force in muscles with neuromuscular dysfunction, said method comprising administering a compound or a composition as defined herein to a subject in need thereof. The term “recovery of force in muscles with neuromuscular dysfunction” as used herein refers to the ability of a compound to recover contractile force in nerve-stimulated healthy rat muscle after exposure to submaximal concentration (115 nM) of tubocurarine for 90 minutes.
Recovery of force is quantified as the percentage of the force prior to tubocurarine that is recovered after addition of the compound. In one embodiment, said recovery of force is >5%, such as >10%, such as >15%, such as >20%, such as >25%, such as >30%, such as >35%.
The current disclosure relates to compounds that inhibit CIC-1 ion channels and increase muscle excitability and thereby improve muscle function in clinical conditions where muscle activation is failing. Such conditions result in loss of contractile function of skeletal muscle, weakness and excessive fatigue. In this series of experiments the compounds were tested for their ability to restore contractile function of isolated rat muscle when the neuromuscular transmission had been compromised akin to neuromuscular disorders.
Experimentally, soleus muscles from 4-5 week old rats were isolated with the motor nerve remaining attached. The nerve-muscle preparations were mounted in experimental setups that enabled electrical stimulation of the motor nerve. Stimulation of the motor nerve led to activation of the muscle fibres and ensuing force production that was recorded. The nerve-muscle preparations were also in these experiments incubated in the standard Krebs Ringer (see example 15) and the solution was heated to 30° C. and continuously equilibrated with a mixture of 95% O2 and 5% CO2, pH ~7.4.
After mounting the nerve-muscle preparation in the experimental setup, the contractile function of the muscle was initially assessed under the control conditions. Sub-maximal concentration of tubocurarine (115 nM), an acetylcholine receptor antagonist, was then added to the experimental bath to impose partial inhibition of the ability of the motor nerve to activate the muscle fibres. The experimental condition mimics the failing neuromuscular transmission in a range of neuromuscular disorders. After addition of tubocurarine the contractile force declined over the next 90 minutes to 10-50% of the control force. The test compound was then added to obtain the required compound concentration in the bath and the contractile force recovered was measured. To quantify the ability of the compound to restore force the percentage of the initial force that was restored was determined after 40 mins of compound exposure and the point increase is reported in Tables 3 to 7.
`O=C(O)c1c(Br)c(Cl)cc2c1CCCC2` [Compound A-66, 2-Bromo-3-chloro-5,6,7,8-tetrahydronaphthalene-1-carboxylic acid] was tested, and the activation at 10 µM was 25%.
Compound `O=C(O)c1c(Cl)c(Br)cc2c1CCCC2` [Compound A-67, 3-bromo-2-chloro-5,6,7,8-tetrahydronaphthalene-1-carboxylic acid] has an activation at 10 µM of 25%.
Compound `CC1(C)CCc2cc(F)c(Cl)c(C(=O)O)c2O1` [Compound A-75, 7-Chloro-6-fluoro-2,2-dimethyl-8-chromancarboxylic acid] has an activation at 10 µM of 10%.
With `CN1CCCc2cc(F)c(Cl)c(C(=O)O)c21` [Compound A-77, 7-Chloro-6-fluoro-1-methyl-1,2,3,4-tetrahydro-8-quinolinecarboxylic acid] the activation at 10 µM was 18%.
In the case of `COc1c(Cl)cc2c(c1C(=O)O)CCCO2` [Compound A-79, 7-Chloro-6-methoxy-5-chromancarboxylic acid], the activation at 10 µM is reported as 34%.
In the case of `CCOc1c(Cl)cc2c(c1C(=O)O)CCCC2` [Compound A-82, 3-Chloro-2-ethoxy-5,6,7,8-tetrahydro-1-naphthoic acid], the activation at 10 µM is reported as 61%.

Same assay, conditions: 40 min, 25 μM of test compound, after 40 mins of compound exposure, tubocurarine (115 nM) for 90 minutes, read-out: Point increase (%): percentage increase of initial force that was restored
For `O=C(O)c1c(Cl)c(F)cc2c1CCC2` [Compound A-62, 5-Chloro-6-fluoro-2,3-dihydro-1H-indene-4-carboxylic acid], the activation at 25 µM was 14%.
With `O=C(O)c1c(Cl)c(F)cc2c1SCCC2` [Compound A-64, 7-Chloro-6-fluoro-3,4-dihydro-2H-1-benzothiopyran-8-carboxylic acid] the activation at 25 µM was 34%.
In the case of `O=C(O)c1c(F)c(Cl)cc2c1CCN2Cc1ccccc1` [Compound A-76, 1-Benzyl-6-chloro-5-fluoro-4-indolinecarboxylic acid], the activation at 25 µM is reported as 45%.
In the case of `O=C(O)c1c(F)c(Cl)cc2c1OCCC2Cc1ccccc1` (centres unmarked) [Compound A-78, 4-Benzyl-6-chloro-7-fluoro-8-chromancarboxylic acid], the activation at 25 µM is reported as 35%.

Same assay, conditions: 40 min, 50 μM of test compound, after 40 mins of compound exposure, tubocurarine (115 nM) for 90 minutes, read-out: Point increase (%): percentage increase of initial force that was restored
`Cc1c(Br)cc2c(c1C(=O)O)CCC2` [Compound A-2, 6-Bromo-5-methyl-2,3-dihydro-1H-indene-4-carboxylic acid] was tested, and the activation at 50 µM was 19%.
Work on `O=C(O)c1c2c(cc(Cl)c1OCF)CCC2` [Compound A-7, 6-Chloro-5-(fluoromethoxy)-2,3-dihydro-1H-indene-4-carboxylic acid] yielded an activation at 50 µM of 36%.
Compound `O=C(O)c1c2c(cc(Cl)c1OC(F)(F)F)CCC2` [Compound A-11, 6-Chloro-5-(trifluoromethoxy)-2,3-dihydro-1H-indene-4-carboxylic acid] has an activation at 50 µM of 31%.
`Cc1c(Cl)cc2c(c1C(=O)O)OCC2` [Compound A-12, 5-Chloro-6-methyl-2,3-dihydro-1-benzofuran-7-carboxylic acid] gave an activation at 50 µM of 19%.
In the case of `Cc1cc2c(c(C(=O)O)c1Cl)CCCCC2` [Compound A-34, 2-chloro-3-methyl-6,7,8,9-tetrahydro-5H-benzo[7]annulene-1-carboxylic acid], the activation at 50 µM is reported as 20%.
`O=C(O)c1c(F)c(Cl)cc2c1OCC2` [Compound A-43, 5-Chloro-6-fluoro-2,3-dihydro-1-benzofuran-7-carboxylic acid] gave an activation at 50 µM of 25%.
`O=C(O)c1c(F)c(I)cc2c1CCCC2` [Compound A-55, 2-Fluoro-3-iodo-5,6,7,8-tetrahydronaphthalene-1-carboxylic acid] showed an activation at 50 µM of 42%.
In the case of `Cc1cc2c(c(C(=O)O)c1F)CCCO2` [Compound A-58, 6-Fluoro-7-methyl-3,4-dihydro-2H-1-benzopyran-5-carboxylic acid], the activation at 50 µM is reported as 48%.
`O=C(O)c1c(F)c(C(F)(F)F)cc2c1CCCC2` [Compound A-60, 2-Fluoro-3-(trifluoromethyl)-5,6,7,8-tetrahydronaphthalene-1-carboxylic acid] was tested, and the activation at 50 µM was 21%.
`COc1cc2c(c(C(=O)O)c1F)OCCC2Cc1ccccc1` (centres unmarked) [Compound A-80, 4-Benzyl-7-fluoro-6-methoxy-8-chromancarboxylic acid] gave an activation at 50 µM of 22%.
With `COc1c(F)cc2c(c1C(=O)O)C(Cc1ccccc1)CCO2` (centres unmarked) [Compound A-81, 4-Benzyl-7-fluoro-6-methoxy-5-chromancarboxylic acid] the activation at 50 µM was 19%.

Same assay, conditions: 40 min, 100 μM of test compound, after 40 mins of compound exposure, tubocurarine (115 nM) for 90 minutes, read-out: Point increase (%): percentage increase of initial force that was restored
For `CN1CCCc2c1cc(Cl)c(F)c2C(=O)O` [Compound A-45, 7-Chloro-6-fluoro-1-methyl-1,2,3,4-tetrahydroquinoline-5-carboxylic acid], the activation at 100 µM was 38%.
In the case of `O=C(O)c1c(Cl)c(Cl)cc2c1CN(Cc1ccccc1)C2` [Compound A-68, 2-Benzyl-5,6-dichloro-2,3-dihydro-1H-isoindole-4-carboxylic acid], the activation at 100 µM is reported as 40%.
